According to US20120009183A1, “METHOD FOR TREATMENT OF PANCREATITIS” (Ore Pharmaceuticals Inc., priority 2007, published 2012):

Key:
[1] = tested on: NF-κB dependent transcription; test: LPS-induced NF-κB dependent transcription in extracted organs of NF-κB::Luc mice (luciferase assay); format: in vivo; settings: 30 mg/kg GL1001 + 0.5 mg/kg LPS vs LPS alone; stomach
From the text: For luciferase assays, organs were extracted and snap frozen in liquid nitrogen. All tissue samples were placed in lysis buffer with inhibitors (Passive Lysis Buffer (Promega) and Complete Mini Protease Inhibitor Cocktail (Roche, Indianapolis, Ind.)), and were homogenized using a tissue homogenizer (Handishear, Hand-held homogenizer, VirTis, Gardiner, N.Y.). Tissue homogenates were centrifuged and clarified lysates were used for luminometer assays and western blots. For the luminometer assays, Luciferase Assay Substrate (Luciferase Assay System, Promega) was prepared as indicated by the manufacturer and placed in disposable cuvettes. […] Background luminescence readings were obtained and the background readings were subtracted from the luminescent data. Protein concentrations were determined using the BCA Protein Assay Kit (Pierce, Rockford, Ill.) following the manufacturer's protocols and analyzed using a VERSAmax tuneable microplate reader and associated Softmax Pro version 3.1.2 software (Molecular Devices, Sunnyvale Calif.). The luminescence for each of the protein lysates was calculated as arbitrary units of light per microgram of protein. […]
GL1001 was further tested for in vivo anti-inflammatory activity by examining its effects on bacterial LPS induced NF-κB dependent transcription, in NF-κB::Luc mice. […] Luciferase signal was quantitated from several regions of interest. […]

[2] = tested on: NF-κB dependent transcription; test: In vivo basal NF-κB dependent transcription in NF-κB::Luc reporter mice, abdominal imaging; settings: 300 mg/kg s.c., 4 hours post administration; p<0.01
From the text: GL1001 was further tested for in vivo anti-inflammatory activity by examining its effects on basal levels of NF-κB dependent transcription in mice engineered in the germline with a construct containing an NF-κB enhancer linked to a luciferase gene (i.e., NF-κB::Luc mice), such that this NF-κB reporter construct is present in all cells of the mice.
More particularly, transgenic NF-κB::Luc mice were generated using three NF-κB response elements from the Igκ light chain promoter fused to a firefly luciferase gene as described by Carlsen et al. (2002) J. Immunol. 168:1441-1446. Pronuclear microinjection of purified construct DNA was used to generate transgenic founders in the C57BL/6 XCBA/J background. Founders were subsequently back crossed to the C57BL/6 albino background. […] Signal data were also quantitated and archived using the Living Image® software. Photons of light were quantitated using an oval region of interest (ROI) of varying sizes depending on the procedure, as described further below.
To test for in vivo effects of GL1001 on basal levels of NF-κB dependent transcription, male NF-κB::Luc mice were subjected to quantitative in vivo imaging of the abdominal area (using a fixed ROI of 2.76×3.7 cm) as described above, immediately before, and at 2, […]

[3] = tested on: activator protein-1 (AP-1); test: Basal in vivo reporter luciferase expression in AP-1::Luc mice; settings: data not shown
[4] = tested on: NF-κB dependent transcription; test: TNFα-induced activation of NF-κB in recombinant HeLa reporter cells (luciferase); format: cell-based; settings: TNFα 20 ng/ml, 6 hours, HeLa NF-κB-luc
From the text: To test the ACE2 inhibitor GL1001 for anti-inflammatory activity relevant to gastrointestinal inflammatory disease, more particularly pancreatitis, effects of the compound on activation of NF-κB dependent transcription by TNFα were examined in recombinant reporter cells containing a construct with a luciferase reporter gene under control of NF-κB dependent regulatory sequences, thereby allowing detection of NF-κB dependent transcription by measuring reporter enzyme using a conventional luciferase activity assay based on detection of generated light.
In particular, HeLa cells (American Type Culture Collection) were grown in Dulbecco's modified Eagles medium (DMEM) supplemented with 10% fetal calf serum and transiently transfected with an NF-κB-luc construct (Stratagene, Inc.), as follows (with all incubation steps at 37 C unless otherwise indicated). Cells were seeded and grown to about 70% confluency in a 10 cm cell culture dish. Plasmid DNA (10 μg) was added to 1 ml serum free DMEM media in a tube. Fugene 6 transfection reagent (30 μl) (Roche) was then pipetted slowly into the tube and the contents were gently mixed by inversion. The mixture was incubated at room temperature for 15 minutes and then added dropwise to cells in one 10 cm dish. […] Bioluminescence was then measured using a Veritas luminometer (Turner BioSystems). […]

[5] = tested on: spontaneous CP in male WBN/Kob rats; settings: Kuno et al. (2003); cited from earlier work
[6] = tested on: acute pancreatitis induced by cerulein; settings: Tsang et al. (2004); cited from earlier work

SMILES: CC(C)C[C@H](N[C@@H](Cc1cncn1Cc1cc(Cl)cc(Cl)c1)C(=O)O)C(=O)O [GL1001, (S,S)-2-[1-carboxy-2-[3-(3,5-dichlorobenzyl)-3H-imidazol-4-yl]-ethylamino]-4-methylpentanoic acid]
- reduction of LPS induced NF-κB-dependent transcription in stomachs [1]: about 37 fold
- inhibition of basal in vivo NF-κB dependent transcription in abdominal ROI [2]: over 40%
- effect on basal in vivo reporter luciferase expression [3]: no significant effect
- inhibition of TNFα induced activation of NF-κB dependent transcription ([4]; at 8 nM): over 80%
- maximal inhibition of TNFα induced activation of NF-κB dependent transcription ([4]; at 0.2 μM): over 95%

SMILES: NCCCC[C@H](N[C@@H](CCc1ccccc1)C(=O)O)C(=O)N1CCC[C@H]1C(=O)O [lisinopril]
- pancreatic fibrosis in animal model of CP [5]: attenuated

SMILES: CCCCc1nc(Cl)c(CO)n1Cc1ccc(-c2ccccc2-c2nn[nH]n2)cc1 [losartan]
- severity of acute pancreatitis induced by cerulein [6]: markedly reduced
